The text below walks through data of BindingDB's records for doi:10.1021/jm0701019 (Abbott Laboratories, 2007).

A value given as a limit tells only on which side of the number the result lay.

The target in one experiment is T1, RAC-alpha serine/threonine-protein kinase [139-480,S378A,S381A,T450D,S473D] (Homo sapiens, UniProt P31749, S378A/S381A/S473D/T450D).
T1 construct: 139-480
T1 sequence (P31749 139-480 S378A/S381A/T450D/S473D): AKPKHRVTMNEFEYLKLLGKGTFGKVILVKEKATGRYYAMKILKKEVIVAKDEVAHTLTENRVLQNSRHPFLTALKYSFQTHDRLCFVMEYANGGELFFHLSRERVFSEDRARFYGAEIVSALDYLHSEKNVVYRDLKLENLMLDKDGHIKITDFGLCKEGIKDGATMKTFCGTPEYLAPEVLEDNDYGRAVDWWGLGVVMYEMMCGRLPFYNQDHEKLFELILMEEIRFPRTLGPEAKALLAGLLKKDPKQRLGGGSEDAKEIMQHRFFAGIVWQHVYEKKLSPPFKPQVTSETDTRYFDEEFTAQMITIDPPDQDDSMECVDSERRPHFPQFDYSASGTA
In words: Akt Kinase Assay.
Conditions: not given
On the procedure:
The kinase assay uses His-Akt1 and a biotinylated peptide as substrate. The biotinylated peptides were immobilized on streptavidin-coated FLASH plates. After reaction, the 33P-phosphopeptide captured on the FLASH plates was measured with a TopCount Packard Instruments […] (Packard Instruments, Boston, MA).
`Cc1n[nH]c2ccc(-c3cncc(OC[C@@H](N)Cc4ccc(Br)cc4)c3)cc12` [5-{5-[(2S)-2-amino-3-(4-bromophenyl)propoxy]pyridin-3-yl}-3-methyl-1H-indazole] gave an IC50 of 5 nM.
The molecule `Cc1ccc(F)cc1C[C@H](N)COc1cncc(-c2ccc3[nH]nc(C)c3c2)c1` [5-{5-[(2S)-2-amino-3-(5-fluoro-2-methylphenyl)propoxy]pyridin-3-yl}-3-methyl-1H-indazole] returned an IC50 of 3.9 nM.
With `Cc1n[nH]c2ccc(-c3cncc(OC[C@@H](N)Cc4cccc(C(F)(F)F)c4)c3)cc12` [(2S)-1-{[5-(3-methyl-1H-indazol-5-yl)pyridin-3-yl]oxy}-3-[3-(trifluoromethyl)phenyl]propan-2-amine], the IC50 worked out at 1.2 nM.
`Cc1n[nH]c2ccc(-c3cncc(OC[C@@H](N)Cc4ccc(Br)c(F)c4)c3)cc12` [5-{5-[(2S)-2-amino-3-(4-bromo-3-fluorophenyl)propoxy]pyridin-3-yl}-3-methyl-1H-indazole] displayed an IC50 of 1.3 nM.
`Cc1n[nH]c2ccc(-c3cncc(OC[C@@H](N)Cc4ccc(C(F)(F)F)cc4F)c3)cc12` [5-{5-[(2S)-2-amino-3-[2-fluoro-4-(trifluoromethyl)phenyl]propoxy]pyridin-3-yl}-3-methyl-1H-indazole] had an IC50 of 12.1 nM. This IC50 lies about 9.3-fold higher than the previous one.
Turning to `Cc1n[nH]c2ccc(-c3cncc(OC[C@@H](N)Cc4cccc(I)c4)c3)cc12` [5-{5-[(2S)-2-amino-3-(3-iodophenyl)propoxy]pyridin-3-yl}-3-methyl-1H-indazole], the IC50 was 0.9 nM.
Consider `Cc1n[nH]c2ccc(-c3cncc(OC[C@@H](N)Cc4cccc(-c5ccccc5)c4)c3)cc12` [5-{5-[(2S)-2-amino-3-(3-phenylphenyl)propoxy]pyridin-3-yl}-3-methyl-1H-indazole], for which the IC50 is 126 nM.
The molecule `Cc1n[nH]c2ccc(-c3cncc(OC[C@@H](N)Cc4c(F)cc(F)cc4Br)c3)cc12` [(2S)-1-(2-bromo-4,6-difluorophenyl)-3-{[5-(3-methyl-1H-indazol-5-yl)pyridin-3-yl]oxy}propan-2-amine] displayed an IC50 of 49 nM.
Still for that read-out and setting: next, `Cc1n[nH]c2cnc(-c3cncc(OC[C@@H](N)Cc4cccc(F)c4F)c3)cc12` [(2S)-1-(2,3-difluorophenyl)-3-{[5-(3-methyl-1H-pyrazolo[3,4-c]pyridin-5-yl)pyridin-3-yl]oxy}propan-2-amine]: 5 nM; `Cc1n[nH]c2ccc(-c3cncc(OC[C@@H](N)Cc4ccccc4Cl)c3)cc12` [5-{5-[(2S)-2-amino-3-(2-chlorophenyl)propoxy]pyridin-3-yl}-3-methyl-1H-indazole]: 29 nM.
`Cc1n[nH]c2ccc(-c3cncc(OC[C@@H](N)Cc4ccc(Cl)cc4)c3)cc12` [(2S)-1-(4-chlorophenyl)-3-{[5-(3-methyl-1H-indazol-5-yl)pyridin-3-yl]oxy}propan-2-amine] showed an IC50 of 11 nM. Compared with the last molecule, the IC50 is about 2.6-fold lower.
As for `Cc1n[nH]c2ccc(-c3cncc(OC[C@@H](N)Cc4ccc(Cl)c(F)c4)c3)cc12` [5-{5-[(2S)-2-amino-3-(4-chloro-3-fluorophenyl)propoxy]pyridin-3-yl}-3-methyl-1H-indazole], 3.6 nM corresponded to half-maximal inhibition (IC50).
Same read-out and setting: to `Cc1n[nH]c2ccc(-c3cncc(OC[C@@H](N)Cc4ccccc4OC(F)(F)F)c3)cc12` [5-{5-[(2S)-2-amino-3-[2-(trifluoromethoxy)phenyl]propoxy]pyridin-3-yl}-3-methyl-1H-indazole] belongs 15.3 nM.
The molecule `Cc1n[nH]c2ccc(-c3cncc(OC[C@@H](N)Cc4ccc(F)c(C(F)(F)F)c4)c3)cc12` [5-{5-[(2S)-2-amino-3-[4-fluoro-3-(trifluoromethyl)phenyl]propoxy]pyridin-3-yl}-3-methyl-1H-indazole] displayed an IC50 of 1.8 nM. This IC50 is about 8.5-fold lower than that of the molecule before.

The same experiment, now with this note: pH 7.5; 22 °C.
Molecule `N[C@H](COc1cncc(-c2ccc3c(c2)/C(=C\c2ccco2)C(=O)N3)c1)Cc1ccccc1` [(3E)-5-{5-[(2S)-2-amino-3-phenylpropoxy]pyridin-3-yl}-3-(furan-2-ylmethylidene)-2,3-dihydro-1H-indol-2-one] registered a half-maximal inhibitory concentration (IC50) of 1.4 nM.
Molecule `Cc1n[nH]c2ccc(-c3cncc(OC[C@@H](N)Cc4c[nH]c5ccccc45)c3)cc12` [5-{5-[(2S)-2-amino-3-(1H-indol-3-yl)propoxy]pyridin-3-yl}-3-methyl-1H-indazole] returned an IC50 of 0.16 nM.
Take `Cc1n[nH]c2ccc(-c3cncc(OC[C@@H](N)Cc4c(F)cccc4F)c3)cc12` [5-{5-[(2S)-2-amino-3-(2,6-difluorophenyl)propoxy]pyridin-3-yl}-3-methyl-1H-indazole]: the IC50 stood at 65.5 nM.
For the molecule `Cc1n[nH]c2ccc(-c3cncc(OC[C@@H](N)Cc4ccc(F)c(F)c4F)c3)cc12` [5-{5-[(2S)-2-amino-3-(2,3,4-trifluorophenyl)propoxy]pyridin-3-yl}-3-methyl-1H-indazole], the midpoint of inhibition, the IC50, lay at 12 nM. This IC50 is about 5.5-fold lower than that of the molecule before.
Take `N[C@H](COc1cncc(-c2ccc3c(c2)/C(=C/c2ccc[nH]2)C(=O)N3)c1)Cc1ccccc1` [(3Z)-5-{5-[(2S)-2-amino-3-phenylpropoxy]pyridin-3-yl}-3-(1H-pyrrol-2-ylmethylidene)-2,3-dihydro-1H-indol-2-one]: it took 16 nM to reach half-maximal inhibition (IC50).

A further experiment concerns the target cAMP-dependent protein kinase catalytic subunit alpha (Bos taurus, UniProt P00517). In words: PKA/PKC Kinase Assay.
Conditions: not given
On the procedure:
The kinase assay uses purified recombinant enzyme and a biotinylated peptide as substrate. The biotinylated peptides were immobilized on streptavidin-coated FLASH plates. After reaction, the 33P-phosphopeptide captured on the FLASH plates was measured with a TopCount Packard Instruments gamma counter (Packard Instruments, Boston, MA). IC50s were calculated using the sigmoidal curve fit with the Assay Explorer software (MDL, Los Angeles, CA).
With `Cc1n[nH]c2ccc(-c3cncc(OC[C@@H](N)Cc4cccc(OCC5CCCCC5)c4)c3)cc12` [5-{5-[(2S)-2-amino-3-[3-(cyclohexylmethoxy)phenyl]propoxy]pyridin-3-yl}-3-methyl-1H-indazole], the IC50 is greater than 3000 nM.
The same measure, in the same setting: to `Cc1n[nH]c2ccc(-c3cncc(OC[C@@H](N)Cc4ccc(Br)cc4)c3)cc12` [5-{5-[(2S)-2-amino-3-(4-bromophenyl)propoxy]pyridin-3-yl}-3-methyl-1H-indazole] belongs 15 nM.

Staying with this experiment, now noted: pH 7.5; 22 °C.
Consider `Cc1n[nH]c2ccc(-c3cncc(OC[C@@H](N)Cc4c[nH]c5ccccc45)c3)cc12` [5-{5-[(2S)-2-amino-3-(1H-indol-3-yl)propoxy]pyridin-3-yl}-3-methyl-1H-indazole], for which the IC50 worked out at 6 nM.
`Cc1n[nH]c2ccc(-c3cncc(OC[C@@H](N)Cc4ccccc4)c3)cc12` [Biochemistry 469551 Compound 11] showed an IC50 of 16 nM.
